Source: patent US20230174946A1, “ORGAN INFECTION MODELS” (priority 2020, published 2023)
Like-named read-outs stand apart in the source and are kept apart here.

Key:
SARS-CoV-2 [1] = type: cell-based; settings: 10 µM Hydroxychloroquine or Remdesivir, 100 units/ml IFNB1; for reduction in viral N gene RNA/expression compared to untreated infected organoids: human 3D alveolar organoids
SARS-CoV-2 [2] = type: cell-based; settings: for effect on viral N gene RNA / viral replication in proximal ALI cultures (in words): pre-treatment, 10 µM Hydroxychloroquine or Remdesivir, 100 units/ml IFNB1
SARS-CoV-2 [3] = type: cell-based; settings: 10 µM Hydroxychloroquine or Remdesivir, 100 units/ml IFNB1
coxsackievirus = settings: dose-dependent; previous study; cited from earlier work

Compound | reduction in viral N gene RNA/expression compared to untreated infected organoids (SARS-CoV-2 [1]) [log] | effect on viral replication in alveolar organoid cultures (in words) (SARS-CoV-2 [1]; pre-treatment) | effect on viral N gene RNA / viral replication in proximal ALI cultures (in words) (SARS-CoV-2 [2]) | effect on viral N gene RNA / viral replication in proximal ALI cultures (in words) (SARS-CoV-2 [2]; listed as hydroxychloroquine) | reduction in viral N gene RNA/expression compared to untreated infected AT2 cultures (SARS-CoV-2 [3]) [log] | effect on viral infection/replication in AT2 cultures (in words) (SARS-CoV-2 [3]; pre-treatment) | reduction in viral N gene RNA abundance (SARS-CoV-2 [2]) [log] | effect on coxsackievirus proliferation in vitro (coxsackievirus)
CCN(CCO)CCCC(C)Nc1ccnc2cc(Cl)ccc12 (stereo not shown) [Hydroxychloroquine] | 2.4 | significantly reduced viral replication | did not show a significant effect | did not have an effect on viral replication | 2.4 | significantly reduced viral replication |  | 
CCC(CC)COC(=O)[C@H](C)N[P@](=O)(OC[C@H]1O[C@@](C#N)(c2ccc3c(N)ncnn23)[C@H](O)[C@@H]1O)Oc1ccccc1 [Remdesivir] | 9 |  |  |  | 9 |  | 10.2 | 
NC(=O)c1ncn([C@@H]2O[C@H](CO)[C@@H](O)[C@H]2O)n1 [ribavirin] |  |  |  |  |  |  |  | significantly reduce coxsackievirus proliferation
